Laboratory results: patent US20100168033A1, “UNACYLATED GHRELIN AS THERAPEUTIC AGENT IN THE TREATMENT OF METABOLIC DISORDERS” (ALIZE PHARMA SAS, priority 2007, published 2010)
“Also recorded” adds a separate entry of the source. Like-named read-outs stand apart in the source and are kept apart here. No end group written: not given here.

What was measured:
[1] = system: UAG receptor on HIT-T15 pancreatic β-cells; experiment: [125I-Tyr4]-UAG competition binding, HIT-T15 membranes; design: species or system hamster; details: for binding to the UAG receptor: HIT-T15 cells
Method: (§1) The ability of the fragment UAG (6-13) to compete in a concentration-dependent manner with [^125I-Tyr^4]-UAG for HIT-T15 (FIG. 10A) and INS-1E (FIG. 10B) binding sites was assayed. As shown in FIGS. 10A and 10B, unlabelled UAG (1-28) and UAG (6-13) competed with a similar efficacy and in a concentration-dependent fashion with [^125I-Tyr^4]-UAG for such binding sites in both cell lines.
(§2) Binding assay—Membranes from hamster HIT-T15 and rat INS-1E to pancreatic β-cells were prepared and assayed for the presence of [^125I-Tyr^4]-UAG binding. The ability of UAG fragments to compete with the radioligand for such binding sites has been evaluated as previously described (Ref. 4). Data are presented as mean±S.E.M. of three independent experiments.

human pancreatic islets [2] = experiment: Insulin secretion in human pancreatic islets; type: cell-based; details: peptide 100 nM; glucose absent or 2 to 25 mM
Method: The effects of UAG (1-14) and UAG (1-18), both used at 100 nM, were investigated on insulin secretion in human islets. […] UAG (1-28) and Exendin-4 were used as positive controls (FIGS. 8C and 8D).

[3] = system: UAG receptor on INS-1E pancreatic β-cells; experiment: [125I-Tyr4]-UAG competition binding, INS-1E membranes; design: species or system rat; details: for binding to the UAG receptor: INS-1E cells
Method: as §1, §2

INS-1E β-cells = experiment: MTT cell survival assay in INS-1E β-cells; type: cell-based, rat; details: peptides 0.1 nM to 100 nM
Method: The peptides were tested at increasing concentrations, ranging from 0.1 nM to 100 nM.
(§3) Cell culture—Hamster HIT-T15 insulin-secreting β-cells were obtained and cultured as described (Refs. 14, 4). INS-1E rat β-cells were kindly provided by Prof. Claes B. Wollheim (University Medical Center, Geneva, Switzerland) and cultured as described (Refs. 14, 4). Cell culture reagents were from Invitrogen (Milano, Italy). Cytokines were from Biosource (Invitrogen, Italy).
(§4) Cell survival assay—Cell survival was assessed by 3-[4,5-dimethylthiazol-2-yl]-2,5 diphenyltetrazolium bromide (MTT) as described previously (Ref. 4). Cells were seeded on 96-well plates at a density of 5×10^3 cells/well. After treatments, cells were incubated with 1 mg/ml MTT for ≈1 h. The medium was aspirated, and the formazan product solubilized with 100 μl DMSO. Viability was assessed by spectrophotometry at 570 nm absorbance using a 96-well plate reader.

HIT-T15 β-cells [4] = experiment: Insulin secretion in HIT-T15 β-cells; type: cell-based, hamster; details: data not shown
Method: Insulin secretion—HIT-T15 cells were plated at density of 5×10^5 cells into 100-mm dishes and serum starved for 24 h before incubation for 1 h at 37° C. in HEPES-buffered Krebs-Ringer bicarbonate buffer (KRBH), containing 0.5% BSA with 1.25 mM glucose. The medium was changed and the cells were incubated again for 1 h in KRBH/0.5% BSA containing 1.25, 7.5 or 15 mM glucose. Following acid ethanol extraction of the hormone, secreted insulin was quantitated by a radioimmunoassay kit (Linco Research, Labodia, Yens, Switzerland) which recognizes human insulin and cross reacts with rat insulin.

HIT-T15 β-cells [5] = type: cell-based; details: for increase of cell survival: serum-free conditions
Method: MTT experiments were also performed in hamster HIT-T15 β-cells, to test the survival effect of UAG (1-28) or its fragments UAG (1-14), UAG (1-18), UAG (1-5) and UAG (17-28) in serum deprived medium, either alone or with IFN-γ/TNF-α/IL-1β. As for the experiments performed on INS-1E β-cells, the peptides were tested at increasing concentrations, ranging from 0.1 nM to 100 nM.
The survival effect of UAG (6-13), UAG (8-13), UAG (8-12), UAG (8-11), UAG (9-12) and UAG (9-11) was assessed in cytokine-treated HIT-T15 β-cells.
The protective effects of peptides UAG (8-13) and UAG (8-12) were found similar to those of UAG (1-14) and UAG (1-18) A peptide made of the inverse sequence of UAG (1-14) and named UAG (14-1), was used as negative control for these experiments (FIG. 5A). […] These effects were however lower than those of UAG (6-13) (FIG. 5B).
UAG fragments with alanine (Ala) substitutions at different amino acid positions (6 to 13) were tested with regards to their survival effects in HIT-T15 hamster β-cells. The cells were cultured in serum deprived medium, either alone or with IFN-γ/TNF-α/IL-1β. The peptides were tested at the concentrations of 1 nM to 100 nM. […] Under treatment with cytokines, where cell survival was reduced by ≈18% with respect to serum starved conditions, all Ala substitutions, except those at positions 10 and 11, completely reversed cell death and brought the survival rate to levels that were even higher than those under serum-free conditions, at both 1 nM and 100 nM concentrations. These effects, were similar to those elicited by the original peptide UAG (6-13) (FIG. 11B).
Particularly, the best effect was exerted by Gly 6-UAG (6-13), whereas the lowest was seen using AcSer 6-UAG (6-13), AcSer 6-(D)Pro 7-UAG (6-13) (FIG. 12B).
as §3, §4

human pancreatic islets [6] = experiment: MTT cell survival assay in human pancreatic islets; type: cell-based; details: 1 nM to 100 nM
Method: The survival effect of UAG (1-14), UAG (1-18), UAG (1-5) and UAG (17-28), with respect to that of full length UAG (1-28), was assessed in human pancreatic islets by MTT. The peptides were tested in islet cells cultured in serum deprived medium, either alone or with IFN-γ/TNF-α/IL-1β (5 ng/ml each).
Human islet isolation—Human islets were obtained from pancreases of multiorgan donors as described (Ref. 4). Islet preparations with purity >70%, not suitable for transplantation, were provided by European Consortium for Islet Transplantation (ECIT) “Islets for Research Distribution Program,” Transplant Unit, Scientific Institute San Raffaele, Vita-Salute University, Milan. Islets (10,000) were cultured in CMRL (Invitrogen) with 10% FBS.
as §4

ob/ob mice = experiment: ob/ob mice, 4-week intraperitoneal pump infusion; type: in vivo, mouse
Method: Baseline tail vein plasma samples were collected from free-fed and 16 h fasted ob/ob mice 7 and 6 days before pump implantation into K2EDTA coated capillary tubes (Microvette CB300 K2E; Sarstedt, Germany). The animals were then separated into three groups with approximately equivalent weight ranges. Ten week old mice were anesthetized, and a filled Alzet 1004 pump was inserted, delivery portal first, into the peritoneal cavity. The musculoperitoneal and skin layers were then closed using interrupted sutures (Vicryl 5.0 FS-2 absorbable suture). Animals received pumps containing either saline, 10 mg/ml UAG, or 3.5 mg/mL UAG (6-13) (n=8 per group). Alzet 1004 pumps deliver […], and infused 30 μg of hUAG/animal/day (˜600 μg/kg/day) and 10 μg of UAG (6-13)/animal/day (˜200 μg/kg/day).
Blood samples (at 0900-1000) were obtained from fed and fasted animals at weeks 2 and 4 via the tail vein into EDTA Microvette tubes. Glucose levels in tail vein blood were measured directly using a glucometer. On the last day of treatment baseline (fasted) blood samples were taken.
For the experimental data illustrated in FIGS. 14A, 14B, 15 and 16, the animals were obtained from Charles River Laboratories (Maastricht, The Netherlands). Animals (B6.V-Lep^ob/J, Charles River Laboratories, Belgian colony) were received in our animal facilities at 8 weeks of age, and acclimatized in individual cages for 2 weeks before treatments began. They were maintained under standard 12:12 h light:dark conditions, 21° C., and were allowed free access to food and water. The animals were also handled daily to accustom them to the method used for blood collection. The peptides were dissolved in sterile, nonpyrogenic, 0.9% saline (Baxter BV, Utrecht, The Netherlands). D-glucose was obtained from Sigma-Aldrich Chemie BV (Zwijndrecht, The Netherlands), and was dissolved at 400 mg/ml in 0.9% saline. Alzet pumps (model 1004) were obtained from Charles River Laboratories (Maastricht, The Netherlands). Pumps were filled with 0.9% saline, UAG or UAG (6-13) solution under sterile conditions, and pre-incubated in 0.9% saline for at least 48 hours at 37° C. to initiate flow. Blood glucose levels were measured directly from tail vein incisions using a Freestyle mini glucometer and test strips (ART05214 Rev.A; Abbot, Amersfoort, The Netherlands). Plasma insulin levels were assayed by Ultra-sensitive mouse insulin ELISA (Cat. #10-1150-10; Mercodia, Sweden).

HIT-T15 β-cells [7] = experiment: Apoptosis in cytokine-treated HIT-T15 β-cells; type: cell-based, hamster
Method: HIT-T15 β-cells were cultured for 24 h in serum-free medium, either alone or with IFN-γ/TNF-α/IL-1β. In both cell lines, apoptosis increased under cytokine treatment, with respect to serum starvation alone. […] UAG (14-1), the inverse sequence of UAG (1-14), was used as negative control, whereas UAG (1-28), was used as positive control in each experiment.

[8] = system: Streptozotocin (STZ)-treated animals; experiment: Streptozotocin (STZ)-treated neonatal rats, diabetes model; type: in vivo, rat; details: for animal survival rate: day 9 after STZ
Description: Natural birth occurred 6-7 days later. […] Pups were left with their mothers.
Pancreas removal and treatment—After excision, pancreases were removed and weighed.

[9] = serum deprived medium with IFN-γ/TNF-α/IL-1β

GSSFLSPEHQRVQQ [UAG (1-14)]
binding to the UAG receptor [1]: recognized and bound to the UAG receptor | insulin secretion (human pancreatic islets [2]): significantly increased insulin secretion both in the absence and presence of glucose | binding to the UAG receptor [3]: recognized and bound to the UAG receptor | cell survival (MTT) (INS-1E β-cells; [9]): more potent than full length UAG (1-28); also recorded: even stronger than native UAG | cell survival (MTT) (INS-1E β-cells; serum-free medium): significant survival effect, comparable to that of UAG (1-28) | glucose-induced insulin secretion (HIT-T15 β-cells [4]): significantly increased glucose-induced insulin secretion | cell survival (MTT) (HIT-T15 β-cells [5]; serum deprived medium alone): significantly increased cell viability | cell survival (MTT) (HIT-T15 β-cells [5]; [9]): significantly increased cell viability | cell survival (MTT) (human pancreatic islets [6]; serum deprived medium alone): significantly increased cell survival in serum deprived medium at 10 nM and 100 nM | cell survival (MTT) (human pancreatic islets [6]; serum deprived medium with IFN-γ/TNF-α/IL-1β (5 ng/ml each)): prevented cell death at 100 nM

GSSFLSPEHQRVQQRKES [UAG (1-18)]
insulin secretion (human pancreatic islets [2]): significant effect with 7.5 mM glucose | cell survival (MTT) (INS-1E β-cells; [9]): more potent than full length UAG (1-28) | cell survival (MTT) (INS-1E β-cells; serum-free medium): significant survival effect, comparable to that of UAG (1-28) | cell survival (MTT) (HIT-T15 β-cells [5]; serum deprived medium alone): significantly increased cell viability | cell survival (MTT) (HIT-T15 β-cells [5]; [9]): significantly increased cell viability | cell survival (MTT) (human pancreatic islets [6]; serum deprived medium alone): significantly increased cell survival at 1 nM and 10 nM

SPEHQRVQ [UAG (6-13), Ser-Pro-Glu-His-Gln-Arg-val-Gln]
binding to the UAG receptor [1]: highest binding activity | IC50 ([1]; HIT-T15 membranes, mean±S.E.M. of three experiments): 3.8 ± 0.3 nM | suppressive effect on plasma glucose levels in fed animals (ob/ob mice; fed animals, relative to saline controls): 30-40% | fed plasma glucose levels (ob/ob mice; fed animals, relative to saline controls, not statistically significant (RM-ANOVA)): consistent suppressive effect | gonadal fat weight (ob/ob mice; over the period of treatment): did not cause an increase in gonadal fat weight | decrease of gonadal fat pad weight relative to saline treated controls (ob/ob mice; period of treatment, trend p<0.06): approximately 7% | binding to the UAG receptor [3]: highest binding activity | IC50 ([3]; INS-1E membranes, mean±S.E.M. of three experiments): 2.4 ± 0.3 nM | cytokine-induced apoptosis (HIT-T15 β-cells [7]; 24 h serum-free medium with IFN-γ/TNF-α/IL-1β, peptides 1, 10, 100 nM): significantly reduced cytokine-induced apoptosis | cell number and morphology (HIT-T15 β-cells [7]; with respect to cytokine condition, data not shown): increased the number of cells, induced cell enlargement and small islets formation | animal survival rate ([8]; 30 nmol/l): ≈ 71% | animal survival rate ([8]; 100 nmol/l): 89% | reduction of plasma glucose vs. STZ group ([8]; day 70, 30 nmol/l): 31% | reduction of plasma glucose vs. STZ group ([8]; day 70, 100 nmol/l): 14% | plasma insulin levels ([8]; day 70, STZ-treated rats, UAG (6-13) at both concentrations): increasing insulin levels | increase of cell survival (HIT-T15 β-cells [5]; peptide 1 nM): ≈ 18% | increase of cell survival (HIT-T15 β-cells [5]; peptide 100 nM): ≈ 30%

exendin-4: positive control for insulin secretion, from Phoenix Pharmaceuticals [reference compound]
insulin secretion (human pancreatic islets [2]): significantly increased insulin secretion both in the absence and presence of glucose | glucose-induced insulin secretion (HIT-T15 β-cells [4]): significantly increased glucose-induced insulin secretion
